# Test system: patients with advanced solid tumors
# Assay: Phase I dose escalation: safety, tolerability, DLTs and MTD
# Format: in vivo
# Method: DDRiver Solid Tumors 410 was an open-label, first-in-human, multicenter, phase I study of lartesertib monotherapy, continuously administered once daily, conducted at three study sites in the United States and Canada. Part 1A was a lartesertib monotherapy dose-escalation study designed to evaluate the safety, tolerability, pharmacokinetics (PK), pharmacodynamics (PD), and early signs of efficacy in patients with advanced solid tumors. Patients were treated with lartesertib at increasing dose levels (DLs) ranging from 100 to 400 mg once daily. Each DL included a dose-limiting toxicity (DLT) observation period of 21 days; treatment was continued until disease progression, death, consent withdrawal, unacceptable toxicity, or the end of the study. Additional details are provided under Study Design in the Supplementary Material S1.
# The primary endpoints were the occurrence of DLTs, adverse events (AE), and treatment-related and treatment-emergent AEs (TEAE), along with the occurrence of clinically significant changes in vital signs, laboratory parameters, and 12-lead electrocardiogram findings. The secondary endpoints included PK parameters of lartesertib in plasma after single and multiple doses; establishment of the recommended dose for expansion based on safety, PK, and PD data; absolute and relative changes overtime from baseline in ATM pathway readouts assessed by flow cytometry and immunohistochemistry; and objective response, duration of response, and progression-free survival (PFS) according to the RECIST version 1.1, as assessed by the investigator. Exploratory endpoints included the correlation of baseline and on-treatment biomarkers with response to lartesertib treatment as well as relative changes in total blood cell count, immune cells, and circulatory factors during exposure to lartesertib.
# The DLT analysis set included all patients who received ≥80% of the planned cumulative dose during the DLT period (Period 1) and had completed the DLT period, or patients who experienced ≥1 DLT during the DLT period, regardless of the number of lartesertib doses administered. Additional details on all analysis sets are provided in the Supplementary Material S1. Analyses to determine dose escalation were performed on the DLT analysis set and were based on available safety and PK data. A Bayesian two-parameter logistic regression model (BLRM) was applied to assist the safety monitoring committee in dose recommendations during lartesertib dose escalation. For the determination of the MTD, posterior probabilities (2.5%, 25%, 50%, 75%, and 97.5% quantiles) for DLT rates at selected doses were estimated by a BLRM. The target toxicity of the model for MTD was set at 30%.
# AEs and diseases were coded according to the Medical Dictionary for Regulatory Activities (RRID: SCR_003751) version 25.1 (until 30 days after the last study treatment). The severity of AEs was graded using the NCI Common Terminology Criteria for Adverse Events (RRID: SCR_010296) version 5.0.
# Part 1A was a lartesertib monotherapy dose-escalation designed to determine the safety, tolerability, pharmacokinetics (PK), pharmacodynamics (PD), and early signs of efficacy in participants with solid tumors. For each patient, the study included a Screening period lasting up to 28 days and the estimated total duration in the study was an approximate of 105 days/15 weeks. Patients were treated with lartesertib orally as a tablet, at doses ranging from 100 to 400 mg once daily (QD) under a fasting condition of 2 hours pre-dose to 1-hour post-dose in general, and 2 hours pre-dose to 4 hours post-dose on days where PK-time matched triplicate ECG were collected. Patients were treated until disease progression, death, adverse events (AEs) leading to discontinuation of study intervention(s), or withdrawal of consent, whichever occurred first, or end of study. […]
structure (smiles),measurement,setting,value
COc1cc2ncc3c(c2cc1-c1cn(C)nc1C)n(-c1c(F)cncc1OC)c(=O)n3C [lartesertib],Any TEAE leading to death,100 mg n = 2,0 (0.0) n (%)
same,Any lartesertib-related TEAE leading to death,100 mg n = 2,0 (0.0) n (%)
same,TEAE: Urinary tract infection,100 mg n = 2,0 (0.0) n (%)
same,Any TEAE leading to death,200 mg n = 7,0 (0.0) n (%)
same,Any lartesertib-related TEAE leading to death,200 mg n = 7,0 (0.0) n (%)
same,TEAE: Urinary tract infection,200 mg n = 7,1 (14.3) n (%)
same,Any TEAE leading to death,300 mg n = 9,0 (0.0) n (%)
same,Any lartesertib-related TEAE leading to death,300 mg n = 9,0 (0.0) n (%)
same,TEAE: Urinary tract infection,300 mg n = 9,1 (11.1) n (%)
same,Any TEAE leading to death,400 mg n = 4,0 (0.0) n (%)
same,Any lartesertib-related TEAE leading to death,400 mg n = 4,0 (0.0) n (%)
same,TEAE: Urinary tract infection,400 mg n = 4,2 (50.0) n (%)
same,Any TEAE leading to death,Total N = 22,0 (0.0) n (%)
same,Any lartesertib-related TEAE leading to death,Total N = 22,0 (0.0) n (%)
same,TEAE: Urinary tract infection,Total N = 22,4 (18.2) n (%)
same,"Abdominal pain, Grade ≥3","human, in vivo",1 (4.5) n (%)
same,"Abdominal pain, Grade ≥4","human, in vivo",0 (0.0) n (%)
same,"Abdominal pain, Grade ≥5","human, in vivo",0 (0.0) n (%)
same,"Alanine aminotransferase increased, Grade ≥3","human, in vivo",2 (9.2) n (%)
same,"Alanine aminotransferase increased, Grade ≥4","human, in vivo",0 (0.0) n (%)
same,"Alanine aminotransferase increased, Grade ≥5","human, in vivo",0 (0.0) n (%)
same,"Anemia, Grade ≥3","human, in vivo",4 (18.2) n (%)
same,"Anemia, Grade ≥4","human, in vivo",0 (0.0) n (%)
same,"Anemia, Grade ≥5","human, in vivo",0 (0.0) n (%)
same,Any AESI cytopenia,"human, in vivo",4 (18.2) n (%)
same,"Any AESI cytopenia, Grade ≥3 (all anemia events)","human, in vivo",4 (18.2) n (%)
same,Any TEAE,"human, in vivo",22 (100.0) n (%)
same,Any TEAE leading to permanent treatment discontinuation,"human, in vivo",5 (22.7) n (%)
same,Any TEAE leading to temporary treatment discontinuation,"human, in vivo",5 (22.7) n (%)
same,"Any TEAE, Grade ≥3","human, in vivo",13 (59.1) n (%)
same,"Any TEAE, Grade ≥4","human, in vivo",1 (4.5) n (%)
same,Any lartesertib-related TEAE,"human, in vivo",15 (68.2) n (%)
same,"Any lartesertib-related TEAE, Grade ≥3","human, in vivo",4 (18.2) n (%)
same,"Any lartesertib-related TEAE, Grade ≥4","human, in vivo",1 (4.5) n (%)
same,Any lartesertib-related serious TEAE,"human, in vivo",2 (9.1) n (%)
same,Any serious TEAE,"human, in vivo",9 (40.9) n (%)
same,"Aspartate aminotransferase increased, Grade ≥3","human, in vivo",3 (13.6) n (%)
same,"Aspartate aminotransferase increased, Grade ≥4","human, in vivo",0 (0.0) n (%)
same,"Aspartate aminotransferase increased, Grade ≥5","human, in vivo",0 (0.0) n (%)
same,"Blood alkaline phosphatase increased, Grade ≥3","human, in vivo",1 (4.5) n (%)
same,"Blood alkaline phosphatase increased, Grade ≥4","human, in vivo",0 (0.0) n (%)
same,"Blood alkaline phosphatase increased, Grade ≥5","human, in vivo",0 (0.0) n (%)
same,"Blood and lymphatic system disorders, Grade ≥3","human, in vivo",4 (18.2) n (%)
same,"Blood and lymphatic system disorders, Grade ≥4","human, in vivo",0 (0.0) n (%)
same,"Blood and lymphatic system disorders, Grade ≥5","human, in vivo",0 (0.0) n (%)
same,"Blood bilirubin increased, Grade ≥3","human, in vivo",1 (4.5) n (%)
same,"Blood bilirubin increased, Grade ≥4","human, in vivo",0 (0.0) n (%)
same,"Blood bilirubin increased, Grade ≥5","human, in vivo",0 (0.0) n (%)
same,"Decreased appetite, Grade ≥3","human, in vivo",1 (4.5) n (%)
same,"Decreased appetite, Grade ≥4","human, in vivo",0 (0.0) n (%)
same,"Decreased appetite, Grade ≥5","human, in vivo",0 (0.0) n (%)
same,"Decreased neutrophil count, grade 1 or 2","human, in vivo",4.5%
same,"Decreased platelet count, grade 1 or 2","human, in vivo",4.5%
same,"Decreased white blood cell count, grade 1 or 2","human, in vivo",4.5%
same,"Dehydration, Grade ≥3","human, in vivo",1 (4.5) n (%)
same,"Dehydration, Grade ≥4","human, in vivo",0 (0.0) n (%)
same,"Dehydration, Grade ≥5","human, in vivo",0 (0.0) n (%)
same,"Gamma-glutamyltransferase increased, Grade ≥3","human, in vivo",1 (4.5) n (%)
same,"Gamma-glutamyltransferase increased, Grade ≥4","human, in vivo",0 (0.0) n (%)
same,"Gamma-glutamyltransferase increased, Grade ≥5","human, in vivo",0 (0.0) n (%)
same,"Gastrointestinal disorders, Grade ≥3","human, in vivo",3 (13.6) n (%)
same,"Gastrointestinal disorders, Grade ≥4","human, in vivo",0 (0.0) n (%)
same,"Gastrointestinal disorders, Grade ≥5","human, in vivo",0 (0.0) n (%)
same,Grade ≥3 anemia,"human, in vivo",18.2%
same,Grade ≥3 decreased lymphocyte count,"human, in vivo",13.6%
same,Grade ≥3 increased aspartate aminotransferase,"human, in vivo",13.6%
same,Grade ≥3 maculopapular rash,"human, in vivo",13.6%
same,"Immune system disorders, Grade ≥3","human, in vivo",1 (4.5) n (%)
same,"Immune system disorders, Grade ≥4","human, in vivo",1 (4.5) n (%)
same,"Immune system disorders, Grade ≥5","human, in vivo",0 (0.0) n (%)
same,"Investigations, Grade ≥3","human, in vivo",6 (27.3) n (%)
same,"Investigations, Grade ≥4","human, in vivo",0 (0.0) n (%)
same,"Investigations, Grade ≥5","human, in vivo",0 (0.0) n (%)
same,Lartesertib-related TEAE: Aspartate aminotransferase increased,"human, in vivo",3 (13.6) n (%)
same,Lartesertib-related TEAE: Blood creatinine increased,"human, in vivo",3 (13.6) n (%)
same,Lartesertib-related TEAE: Diarrhea,"human, in vivo",4 (18.2) n (%)
same,Lartesertib-related TEAE: Headache,"human, in vivo",3 (13.6) n (%)
same,Lartesertib-related TEAE: Maculopapular rash,"human, in vivo",5 (22.7) n (%)
same,Lartesertib-related TEAE: Nausea,"human, in vivo",5 (22.7) n (%)
same,Lartesertib-related TEAE: Pyrexia,"human, in vivo",6 (27.3) n (%)
same,"Lymphocyte count decreased, Grade ≥3","human, in vivo",3 (13.6) n (%)
same,"Lymphocyte count decreased, Grade ≥4","human, in vivo",0 (0.0) n (%)
same,"Lymphocyte count decreased, Grade ≥5","human, in vivo",0 (0.0) n (%)
same,"Maculopapular rash, Grade ≥3","human, in vivo",3 (13.6) n (%)
same,"Maculopapular rash, Grade ≥4","human, in vivo",0 (0.0) n (%)
same,"Maculopapular rash, Grade ≥5","human, in vivo",0 (0.0) n (%)
same,"Metabolism and nutrition disorders, Grade ≥3","human, in vivo",1 (4.5) n (%)
same,"Metabolism and nutrition disorders, Grade ≥4","human, in vivo",0 (0.0) n (%)
same,"Metabolism and nutrition disorders, Grade ≥5","human, in vivo",0 (0.0) n (%)
same,"Nausea, Grade ≥3","human, in vivo",2 (9.1) n (%)
same,"Nausea, Grade ≥4","human, in vivo",0 (0.0) n (%)
same,"Nausea, Grade ≥5","human, in vivo",0 (0.0) n (%)
same,Patients with at least one TEAE,"human, in vivo",100%
same,Patients with at least one lartesertib-related TEAE,"human, in vivo",68.2%
same,Patients with lartesertib-related grade 3 TEAEs,"human, in vivo",18.2%
same,Patients with serious TEAEs,"human, in vivo",40.9%
same,Serious TEAE maculopapular rash,"human, in vivo",9.1%
same,Serious TEAE nausea,"human, in vivo",9.1%
same,"Skin and subcutaneous tissue disorders, Grade ≥3","human, in vivo",3 (13.6) n (%)
same,"Skin and subcutaneous tissue disorders, Grade ≥4","human, in vivo",0 (0.0) n (%)
same,"Skin and subcutaneous tissue disorders, Grade ≥5","human, in vivo",0 (0.0) n (%)
same,TEAE fatigue,"human, in vivo",40.9%
same,TEAE increased blood creatinine,"human, in vivo",27.3%
same,TEAE nausea,"human, in vivo",27.3%
same,TEAE pyrexia,"human, in vivo",36.4%
same,TEAE: Abdominal pain,"human, in vivo",4 (18.2) n (%)
same,TEAE: Alanine aminotransferase increased,"human, in vivo",4 (18.2) n (%)
same,TEAE: Anemia,"human, in vivo",4 (18.2) n (%)
same,TEAE: Aspartate aminotransferase increased,"human, in vivo",4 (18.2) n (%)
same,TEAE: Blood bilirubin increased,"human, in vivo",3 (13.6) n (%)
same,TEAE: Blood creatinine increased,"human, in vivo",6 (27.3) n (%)
same,TEAE: Decreased appetite,"human, in vivo",3 (13.6) n (%)
same,TEAE: Diarrhea,"human, in vivo",4 (18.2) n (%)
same,TEAE: Fatigue,"human, in vivo",9 (40.9) n (%)
same,TEAE: Headache,"human, in vivo",3 (13.6) n (%)
same,TEAE: Lymphocyte count decreased,"human, in vivo",3 (13.6) n (%)
same,TEAE: Maculopapular rash,"human, in vivo",5 (22.7) n (%)
same,TEAE: Nausea,"human, in vivo",6 (27.3) n (%)
same,TEAE: Pyrexia,"human, in vivo",8 (36.4) n (%)
same,TEAE: Vomiting,"human, in vivo",5 (22.7) n (%)
same,"TEAEs, subjects with at least one event, Grade ≥3","human, in vivo",13 (59.1) n (%)
same,"TEAEs, subjects with at least one event, Grade ≥4","human, in vivo",1 (4.5) n (%)
same,"TEAEs, subjects with at least one event, Grade ≥5","human, in vivo",0 (0.0) n (%)
same,"Vomiting, Grade ≥3","human, in vivo",1 (4.5) n (%)
same,"Vomiting, Grade ≥4","human, in vivo",0 (0.0) n (%)
same,"Vomiting, Grade ≥5","human, in vivo",0 (0.0) n (%)
same,Changes in vital signs and triplicate electrocardiogram values,in vivo,No clinically meaningful changes
same,Patients with ≥1 treatment-related adverse events of grade ≥3,in vivo,Five patients
same,Maximum tolerated dose (MTD),"oral, continuous once daily monotherapy, suggested by BLRM",300 mg once daily
same,TEAEs leading to death,study period,No TEAEs led to death
